Broadly, the pIC50 is the negative decadic logarithm of the IC50, by convention in mol/L. The pEC50 is the negative decadic logarithm of the EC50, by convention in mol/L. As a reminder, the inhibition is how much of the control response was suppressed. The term CC50 denotes the concentration at which the toxic effect on the cells reaches its halfway point.

pEC50, pIC50: −log10 of the molar value. Active and inactive are the calls of the source. No cut-off for these calls is given here. Where only a bound is given, the exact number is not on record here.

The values below come from ChEMBL document CHEMBL3232931 (J Med Chem, 2014).

Data set [1] in a line: (§1) Inhibition of SARS coronavirus papain-like protease (amino acids 1541 to 1855) expressed in Escherichia coli BL21 (DE3) cells assessed as decrease in AMC release using Z-RLRGG-AMC as substrate by multimode plate reader analysis. On the set-up: species or system Severe acute respiratory syndrome-related coronavirus.
The test system of data set [2] is SARS-CoV. Briefly: Antiviral activity against SARS coronavirus infected in african green monkey Vero E6 cells assessed as cell viability after 48 hrs by Cell Titer-Glo luminescent assay. The format is functional, organism-based. The note with it: Severe acute respiratory syndrome-related coronavirus. A general note: Cellular ATP, detected with luciferase, serves as a proxy for viable cell number.

The target in data set [3] is Replicase polyprotein 1a (Human coronavirus NL63) (UniProt P0C6U6). Nature of the data set: Inhibition of human coronavirus NL63 PLP2 (amino acids 1565 to 1894) expressed in Escherichia coli BL21 (DE3) cells assessed as reduction of AMC release using Z-RLRGG-AMC as substrate at 100 uM by multimode plate reader analysis.
For data set [4], the system named is BL21-DE3. Briefly: Inhibition of SARS coronavirus papain-like protease (amino acids 1541 to 1855) expressed in Escherichia coli BL21 (DE3) cells assessed as decrease in AMC release using Z-RLRGG-AMC as substrate by serum shift assay based multimode plate reader analysis in presence of 5 to 20% human serum albumin. The conditions noted are these: Severe acute respiratory syndrome-related coronavirus.

Data set [5] in a line: Metabolic stability in mouse liver microsomes assessed as parent compound remaining at 1 uM after 15 mins. The format is ADME. The conditions noted are these: read-out: Stability. (Liver microsomes are a subcellular fraction often used to study metabolism.)
The subject of data set [6] is BL21-DE3. The data set is described as §1. The conditions noted are these: Severe acute respiratory syndrome-related coronavirus.
Data set [7] has as its system Liver. Briefly: Half life in mouse liver microsomes at 1 uM. Type of data set: ADME.
Data set [8] addresses Replicase polyprotein 1a (Human coronavirus NL63) (UniProt P0C6U6). Briefly: (§2) Inhibition of human coronavirus NL63 PLP2 (amino acids 1565 to 1894) expressed in Escherichia coli BL21 (DE3) cells assessed as reduction of AMC release using Z-RLRGG-AMC as substrate by multimode plate reader analysis.
Target sequence in this assay (P0C6U6 899-2462 limits assumed): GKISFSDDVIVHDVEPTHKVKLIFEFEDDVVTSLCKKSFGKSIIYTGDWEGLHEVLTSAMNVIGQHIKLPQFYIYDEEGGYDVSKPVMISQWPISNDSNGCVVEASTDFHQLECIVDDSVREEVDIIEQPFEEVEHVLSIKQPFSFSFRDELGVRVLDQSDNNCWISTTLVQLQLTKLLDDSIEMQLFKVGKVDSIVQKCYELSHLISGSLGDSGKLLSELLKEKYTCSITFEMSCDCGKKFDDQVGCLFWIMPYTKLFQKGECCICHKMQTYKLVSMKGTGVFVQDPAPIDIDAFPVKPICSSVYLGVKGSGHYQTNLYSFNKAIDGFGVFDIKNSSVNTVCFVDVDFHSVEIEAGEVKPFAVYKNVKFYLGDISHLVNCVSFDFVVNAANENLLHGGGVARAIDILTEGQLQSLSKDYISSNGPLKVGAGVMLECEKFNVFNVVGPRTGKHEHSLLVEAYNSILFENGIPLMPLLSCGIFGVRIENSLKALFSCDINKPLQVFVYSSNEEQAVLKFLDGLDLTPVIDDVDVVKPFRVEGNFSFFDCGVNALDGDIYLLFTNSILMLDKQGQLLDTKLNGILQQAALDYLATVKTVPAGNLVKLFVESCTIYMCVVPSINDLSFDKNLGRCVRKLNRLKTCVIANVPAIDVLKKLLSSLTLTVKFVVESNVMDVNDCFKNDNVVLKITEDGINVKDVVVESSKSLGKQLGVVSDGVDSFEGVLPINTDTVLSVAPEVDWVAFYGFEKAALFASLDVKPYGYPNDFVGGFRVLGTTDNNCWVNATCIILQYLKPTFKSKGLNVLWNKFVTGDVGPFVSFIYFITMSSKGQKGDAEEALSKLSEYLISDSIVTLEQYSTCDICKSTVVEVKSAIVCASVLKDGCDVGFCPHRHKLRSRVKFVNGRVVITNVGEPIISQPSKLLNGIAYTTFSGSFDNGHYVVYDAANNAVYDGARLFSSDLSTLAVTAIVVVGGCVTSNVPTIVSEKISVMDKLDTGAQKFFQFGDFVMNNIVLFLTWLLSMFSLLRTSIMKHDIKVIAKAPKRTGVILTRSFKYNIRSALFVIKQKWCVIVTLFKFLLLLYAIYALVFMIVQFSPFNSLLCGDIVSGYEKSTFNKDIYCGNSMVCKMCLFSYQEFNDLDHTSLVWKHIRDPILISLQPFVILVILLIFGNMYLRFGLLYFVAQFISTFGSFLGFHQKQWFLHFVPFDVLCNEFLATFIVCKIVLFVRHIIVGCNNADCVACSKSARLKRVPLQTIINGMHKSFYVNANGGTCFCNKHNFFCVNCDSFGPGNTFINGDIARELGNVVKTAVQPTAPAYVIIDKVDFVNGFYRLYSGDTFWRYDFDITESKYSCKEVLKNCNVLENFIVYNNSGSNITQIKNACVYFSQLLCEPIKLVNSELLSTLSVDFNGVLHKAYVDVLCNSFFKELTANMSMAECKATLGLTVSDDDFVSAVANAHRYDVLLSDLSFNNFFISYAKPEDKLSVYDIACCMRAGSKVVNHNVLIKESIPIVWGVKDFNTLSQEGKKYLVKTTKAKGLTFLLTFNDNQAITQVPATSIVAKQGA
For data set [9], the target named is Replicase polyprotein 1a (Human coronavirus NL63, UniProt P0C6U6). The data set is described as §2.
Data set [10] relates to HEK293. Briefly: Cytotoxicity against human HEK293 cells assessed as cell viability after 48 hrs by Cell Titer-Glo luminescent assay. The note with it: hek293, 48 h. The format is cell-based.
Data set [11] can be described thus: Cytotoxicity against african green monkey Vero E6 cells assessed as cell viability after 48 hrs by Cell Titer-Glo luminescent assay. Type of data set: cell-based. The note with it: chlorocebus sabaeus.
Data set [12] is described as follows: Therapeutic index, ratio of CC50 for african green monkey Vero E6 cells to EC50 for SARS coronavirus infected in african green monkey Vero E6 cells. Type of data set: cell-based. The conditions noted are these: read-out: Ratio CC50/EC50.

Replicase polyprotein 1a, sequence (P0C6U6 899-2462 limits assumed): as above

For `C[C@H](c1cccc2ccccc12)N1CCC(C(=O)NCc2ccccc2)CC1`, in [1], the pIC50 was 5.66. In data set [2], the pEC50 was below 4.30. As for `CNC(=O)c1ccc(CNC(=O)C2CCN([C@H](C)c3cccc4ccccc34)CC2)cc1`, in data set [1], the pIC50 is 6.22.

On to `COc1cc(CNC(=O)C2CCN([C@H](C)c3cccc4ccccc34)CC2)ccn1`, for which the inhibition in data set [3] is above 30%. Moreover, the inhibition entry in [4] was “Active”. Also, the remaining at 0.25 h, 1 µM in data set [5] was determined as 30%. Moreover, the Imax was 100% in data set [6] and 67% in data set [8]. In addition, the pIC50 is 6.46 in [1] and 4.23 in data set [9]. In addition, the t1/2 in data set [7] amounted to 8 min. The negative logarithm of the EC50 (pEC50) in [2] is 5.02. In addition, the CC50 in [10] and in data set [11] was above 100 µM in each case. Turning to `CC(=O)NCc1cccc(CNC(=O)C2CCN([C@H](C)c3cccc4ccccc34)CC2)c1`, the pIC50 in data set [1] is 4.69. For the molecule `O=C(NCc1ccc2c(c1)OCO2)C1CCN(C(Cc2ccccc2)c2cccc3ccccc23)CC1` (racemic), the pIC50 in data set [1] is below 4.00.

For `CC(c1cccc2ncccc12)N1CCC(C(=O)NCc2cccc(F)c2)CC1` (racemic), the pIC50 in data set [1] was 5.35.

For the molecule `CC(c1cccc2cccnc12)N1CCC(C(=O)NCc2cccc(F)c2)CC1` (racemic), the pIC50 in data set [1] was 5.15. Also, in data set [2], the pEC50 is below 4.30. As for `C[C@H](c1cccc2ccccc12)N1CCC(C(=O)NCCc2cccc(F)c2)CC1`, the pIC50 in data set [1] was 5.72. Consider `CNC(=O)c1cccc(CNC(=O)C2CCN([C@H](C)c3cccc4ccccc34)CC2)c1`, for which, in data set [1], the pIC50 is 6.20. The same measure, in the same setting: the result for `C[C@H](NC(=O)C1CCN([C@H](C)c2cccc3ccccc23)CC1)c1ccccc1` reads 4.90. The same measure, in the same setting: the result for `C[C@H](c1cccc2ccccc12)N1CCC(C(=O)N[C@H](C)c2ccccc2)CC1` reads 4.87; that for `O=C(NCc1ccc2c(c1)OCO2)C1CCN(C(CO)c2cccc3ccccc23)CC1` (racemic), 4.49. The same measure, in the same setting: the figure for `C[C@H](c1cccc2ccccc12)N1CCC(C(=O)NCCc2ccc(Cl)cc2)CC1` is 5.80.

Turning to `CC(=O)Nc1ccc(CNC(=O)C2CCN([C@H](C)c3cccc4ccccc34)CC2)cc1`, in data set [3], the inhibition was above 30%. The figures for the Imax in data set [6] and in data set [8] were 94% and 42%, respectively. For the same molecule, the negative logarithm of the IC50 (pIC50) in data set [1] was 5.24; in data set [9], 4.43. With `C[C@H](c1cccc2ccccc12)N1CCC(C(=O)NCc2ccncc2)CC1`, the pIC50 in data set [1] was 4.74. Still for that read-out and setting: the figure for `O=C(NCc1cccc(F)c1)C1CCN(C2CCCc3ccc4ccccc4c32)CC1` (stereo not drawn) is 5.29. Take `COC[C@@H](NC(=O)C1CCN([C@H](C)c2cccc3ccccc23)CC1)c1ccccc1`: the inhibition entry in data set [4] is “Active”. Also, the pIC50 in data set [1] was 5.72. Also, in [2], the pEC50 is 4.93. Also, the CC50 in data set [10] and in data set [11] was above 100 µM in each case. The selectivity ratio in data set [12] was above 8.5. Turning to `CC(c1nccc2ccccc12)N1CCC(C(=O)NCc2cccc(F)c2)CC1` (racemic), the pIC50 in data set [1] was 4.51. Still for that read-out and setting: the figure for `C[C@H](c1cccc2ccccc12)N1CCC(C(=O)NCc2cccc(Cl)c2)CC1` is 4.57.

In the case of `C[C@H](c1cccc2ccccc12)N1CCC(C(=O)NCc2ccc(F)c(F)c2)CC1`, the inhibition in data set [3] was above 30%. Besides, the figures for the Imax in [6] and in data set [8] were 78% and 48%, respectively. Further, the pIC50 is 4.53 in data set [1] and 4.36 in data set [9]. Consider `CCc1ccc(CNC(=O)C2CCN([C@H](C)c3cccc4ccccc34)CC2)cc1`, for which the pIC50 in [1] is 6.33.

Take `COC[C@H](NC(=O)C1CCN([C@H](C)c2cccc3ccccc23)CC1)c1ccccc1`: in [1], the pIC50 is 4.74. Still for that read-out and setting: the result for `CCC(c1cccc2ccccc12)N1CCC(C(=O)NCc2ccc3c(c2)OCO3)CC1` (racemic) reads 4.76; that for `C[C@H](c1cccc2ccccc12)N1CCC(C(=O)NCc2cccnc2)CC1`, 4.58; that for `COCC(c1cccc2ccccc12)N1CCC(C(=O)NCc2ccc3c(c2)OCO3)CC1` (racemic), below 4.00. As for `CC(c1cccc2cnccc12)N1CCC(C(=O)NCc2cccc(F)c2)CC1` (racemic), the pIC50 in data set [1] was 5.17. The pEC50 in data set [2] was below 4.30. In the case of `C[C@H](c1cccc2ccccc12)N1CCC(C(=O)NCc2ccc(Cl)cc2)CC1`, in data set [1], the pIC50 was 6.24.
